Experimental findings from patent US20140221346A1, “THERAPEUTIC COMPOUNDS” (Gilead Sciences, Inc., priority 2013, published 2014) are described below.

Series [1] can be described thus: Test B: Cytotoxicity Assay. The conditions noted are these: human, uninfected MT-4 cells, same protocol as Test A, CellTiter-Glo. In kind it is cell-based. Here is the method:
(§1) For the antiviral assay, 40 μL of 1× test concentration of 3-fold serially diluted compound in culture medium with 10% FBS was added to each well of a 384-well plate (10 concentrations) in quadruplicate. MT-4 cells were next mixed with HIV-IIIb at an m.o.i of 0.003 for 1 hour, after which time 35 μL of virus/cell mixture (2000 cells) was immediately added to each well containing 40 μL of diluted compound. The plates were then incubated at 37° C. for 5 days. After 5 days of incubation, 25 μl of 2× concentrated CellTiter-Glo™ Reagent (catalog #G7571, Promega Biosciences, Inc., Madison, Wis.) was added to each well containing MT-4 cells. Cell lysis was carried out by incubating at room temperature for 10 min and then chemiluminescence was read.
Compound cytotoxicity and the corresponding CC50 values was determined using the same protocol as described in the antiviral assay (Test A) except that uninfected cells were used.
A general note: ATP-based viability assays read luminescence as a measure of living cells.

The next series has as its system HIV-IIIb. The experiment in a line: Test A: Antiviral Assay in MT4 Cells. In kind it is cell-based, HIV-1. Particulars: Human immunodeficiency virus 1, IIIB, MT4, 120 h, read-out: % inhibition at 3 μM. As to the method: as §1

Each structure is given as a SMILES string.

As a reminder, the CC50 is the concentration at which the toxic effect on the cells reaches its halfway point. A high value points to better tolerance by the cells. As usually defined, the inhibition is the drop in the measured response relative to a control, in per cent.

As to `NC(=O)c1cc(-c2cnc(N3CCC(O)CC3)nc2[C@H](Cc2cc(F)cc(F)c2)NC(=O)Cn2nc(C(F)F)c3c2C(F)(F)CCC3(F)F)ccc1F` [Compound 21, (S)-5-(4-(1-(2-(3-(difluoromethyl)-4,4,7,7-tetrafluoro-4,5,6,7-tetrahydro-1H-indazol-1-yl)acetamido)-2-(3,5-difluorophenyl)ethyl)-2-(4-hydroxypiperidin-1-yl)pyrimidin-5-yl)-2-fluorobenzamide], the midpoint of cytotoxicity in series [1], the CC50 at 5 days, lay at 22.5 µM. For the same compound, the inhibition at 3 µM in the series on HIV-IIIb was found to be 41%.

`NC(=O)c1cc(-c2cnc(NCCN3CCNC3=O)nc2[C@H](Cc2cc(F)cc(F)c2)NC(=O)Cn2nc(C(F)F)c3c2C(F)(F)CCC3(F)F)ccc1F` [Compound 22B, (S)-5-(4-(1-(2-(3-(difluoromethyl)-4,4,7,7-tetrafluoro-4,5,6,7-tetrahydro-1H-indazol-1-yl)acetamido)-2-(3,5-difluorophenyl)ethyl)-2-((2-(2-oxoimidazolidin-1-yl)ethyl)amino)pyrimidin-5-yl)-2-fluorobenzamide] gave a CC50 at 5 days in series [1] of 34.1 µM. In addition, in the series with HIV-IIIb, the inhibition at 3 µM was determined as 93%.

Compound `NC(=O)c1cc(-c2cnc(NCCn3ccnn3)nc2[C@H](Cc2cc(F)cc(F)c2)NC(=O)Cn2nc(C(F)F)c3c2C(F)(F)CCC3(F)F)ccc1F` [Compound 23F, (S)-5-(2-((2-(1H-1,2,3-triazol-1-yl)ethyl)amino)-4-(1-(2-(3-(difluoromethyl)-4,4,7,7-tetrafluoro-4,5,6,7-tetrahydro-1H-indazol-1-yl)acetamido)-2-(3,5-difluorophenyl)ethyl)pyrimidin-5-yl)-2-fluorobenzamide] yielded a CC50 at 5 days in series [1] of 32.7 µM. The inhibition at 3 µM with HIV-IIIb stood at 77%.

`NC(=O)c1cc(-c2cnc(NCCN3CCCC3=O)nc2[C@H](Cc2cc(F)cc(F)c2)NC(=O)Cn2nc(C(F)F)c3c2C(F)(F)CCC3(F)F)ccc1F` [Compound 24, (S)-5-(4-(1-(2-(3-(difluoromethyl)-4,4,7,7-tetrafluoro-4,5,6,7-tetrahydro-1H-indazol-1-yl)acetamido)-2-(3,5-difluorophenyl)ethyl)-2-((2-(2-oxopyrrolidin-1-yl)ethyl)amino)pyrimidin-5-yl)-2-fluorobenzamide]: the midpoint of cytotoxicity in series [1], the CC50 at 5 days, lay at 37.2 µM. In addition, the inhibition at 3 µM with HIV-IIIb came out at 79%.

For the compound `NC(=O)c1cc(-c2cnc(NC3CCOC3)nc2[C@H](Cc2cc(F)cc(F)c2)NC(=O)Cn2nc(C(F)F)c3c2C(F)(F)CCC3(F)F)ccc1F` (stereo partly drawn) [Compound 25, 5-(4-((S)-1-(2-(3-(difluoromethyl)-4,4,7,7-tetrafluoro-4,5,6,7-tetrahydro-1H-indazol-1-yl)acetamido)-2-(3,5-difluorophenyl)ethyl)-2-((tetrahydrofuran-3-yl)amino)pyrimidin-5-yl)-2-fluorobenzamide], in series [1], the midpoint of cytotoxicity, the CC50 at 5 days, lay at 37.7 µM. In addition, in the series on HIV-IIIb, the inhibition at 3 µM came out at 69%.

Take `NC(=O)c1cc(-c2cnc(NCCO)nc2[C@H](Cc2cc(F)cc(F)c2)NC(=O)Cn2nc(C(F)F)c3c2C(F)(F)CCC3(F)F)ccc1F` [Compound 26, (S)-5-(4-(1-(2-(3-(difluoromethyl)-4,4,7,7-tetrafluoro-4,5,6,7-tetrahydro-1H-indazol-1-yl)acetamido)-2-(3,5-difluorophenyl)ethyl)-2-((2-hydroxyethyl)amino)pyrimidin-5-yl)-2-fluorobenzamide]: the CC50 at 5 days in series [1] came out at 19.9 µM. Moreover, in the series on HIV-IIIb, the inhibition at 3 µM was determined as 86%.

For `NC(=O)c1cc(-c2cnc(NCCN3CCOCC3)nc2[C@H](Cc2cc(F)cc(F)c2)NC(=O)Cn2nc(C(F)F)c3c2C(F)(F)CCC3(F)F)ccc1F` [Compound 28, (S)-5-(4-(1-(2-(3-(difluoromethyl)-4,4,7,7-tetrafluoro-4,5,6,7-tetrahydro-1H-indazol-1-yl)acetamido)-2-(3,5-difluorophenyl)ethyl)-2-((2-morpholinoethyl)amino)pyrimidin-5-yl)-2-fluorobenzamide], in series [1], the midpoint of cytotoxicity, the CC50 at 5 days, lay at 14.1 µM. For the same compound, the inhibition at 3 µM in the series with HIV-IIIb worked out at 81%.

Regarding `O=C(Cn1nc(C(F)F)c2c1C(F)(F)CCC2(F)F)N[C@@H](Cc1cc(F)cc(F)c1)c1nc(-n2cncn2)ncc1-c1ccc2c(c1)C(=O)NC2` [Compound 29D, (S)-2-(3-(difluoromethyl)-4,4,7,7-tetrafluoro-4,5,6,7-tetrahydro-1H-indazol-1-yl)-N-(2-(3,5-difluorophenyl)-1-(5-(3-oxoisoindolin-5-yl)-2-(1H-1,2,4-triazol-1-yl)pyrimidin-4-yl)ethyl)acetamide], in series [1], half-maximal cytotoxicity (CC50 at 5 days) was put at 40 µM. Besides, the inhibition at 3 µM with HIV-IIIb is 101%.
